# From ChEMBL document CHEMBL1201862, “PubChem BioAssay data set” (2004)
# Calls of active or inactive are those of the source.
# Legend:
# [1] = target: T1, Short transient receptor potential channel 4 (Mus musculus, UniProt Q9QUQ5); assay: mouse TRPC4 channel activators, dose response, cell-based, HEK293 TRPC4/mu-opioid, Fluo-4 calcium (AID 434937); assay type: functional
# T1 sequence (Q9QUQ5 whole entry): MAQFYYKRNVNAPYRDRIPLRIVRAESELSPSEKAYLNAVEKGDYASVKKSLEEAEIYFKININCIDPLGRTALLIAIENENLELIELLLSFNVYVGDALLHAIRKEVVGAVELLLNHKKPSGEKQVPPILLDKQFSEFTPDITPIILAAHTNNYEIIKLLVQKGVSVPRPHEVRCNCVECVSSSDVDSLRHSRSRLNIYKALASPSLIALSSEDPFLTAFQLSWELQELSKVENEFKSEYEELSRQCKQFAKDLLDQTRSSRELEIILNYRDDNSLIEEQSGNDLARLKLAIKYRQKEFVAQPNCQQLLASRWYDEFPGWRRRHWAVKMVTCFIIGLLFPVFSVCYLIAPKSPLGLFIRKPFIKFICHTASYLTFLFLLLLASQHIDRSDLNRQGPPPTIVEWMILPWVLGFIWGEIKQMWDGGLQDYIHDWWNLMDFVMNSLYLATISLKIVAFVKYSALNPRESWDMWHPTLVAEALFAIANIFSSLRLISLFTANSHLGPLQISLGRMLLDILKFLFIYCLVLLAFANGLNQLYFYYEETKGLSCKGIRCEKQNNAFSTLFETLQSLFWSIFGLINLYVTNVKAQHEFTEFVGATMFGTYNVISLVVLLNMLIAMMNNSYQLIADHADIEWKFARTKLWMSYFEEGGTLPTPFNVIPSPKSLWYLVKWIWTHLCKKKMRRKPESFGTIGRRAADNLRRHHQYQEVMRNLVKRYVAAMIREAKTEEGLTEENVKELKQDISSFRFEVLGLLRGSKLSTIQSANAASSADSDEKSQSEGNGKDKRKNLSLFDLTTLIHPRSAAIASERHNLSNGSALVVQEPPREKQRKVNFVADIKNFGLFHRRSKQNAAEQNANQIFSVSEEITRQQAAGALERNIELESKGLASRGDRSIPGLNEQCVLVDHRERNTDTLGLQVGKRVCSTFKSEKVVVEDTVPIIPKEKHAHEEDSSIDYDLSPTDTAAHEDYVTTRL
# Streptococcus = assay: Group A Streptococcus viability loss, dose response, counter-screen for streptokinase expression inhibitor project, luminescence, BacTiterGlo (AID 1915); assay type: functional, organism-based;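 further: potency for reduction of bacterial viability or growth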
# Streptokinase A = target: T2, Streptokinase A (Streptococcus pyogenes serotype M1, UniProt P10520); assay: S. pyogenes streptokinase expression inhibitors, potency, dose response, plasminogen activation absorbance, OD405 (AID 1914); assay type: functional, Streptococcus pyogenes M1 GAS;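 further: secreted streptokinase activity via plasminogen activation per viability signal from cell pellet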
# T2 sequence (P10520 whole entry): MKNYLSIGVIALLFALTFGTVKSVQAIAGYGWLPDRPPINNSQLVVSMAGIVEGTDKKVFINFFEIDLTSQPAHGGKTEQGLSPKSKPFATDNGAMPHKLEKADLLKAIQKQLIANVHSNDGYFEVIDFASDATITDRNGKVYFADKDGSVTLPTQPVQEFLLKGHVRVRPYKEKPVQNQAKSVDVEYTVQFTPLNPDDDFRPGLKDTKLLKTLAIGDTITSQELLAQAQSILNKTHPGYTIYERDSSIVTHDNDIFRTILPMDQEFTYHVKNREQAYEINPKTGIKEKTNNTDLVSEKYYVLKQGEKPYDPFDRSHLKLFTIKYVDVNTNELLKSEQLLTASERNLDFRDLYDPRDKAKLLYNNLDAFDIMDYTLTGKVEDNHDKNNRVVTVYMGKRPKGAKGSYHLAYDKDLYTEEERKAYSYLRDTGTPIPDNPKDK
# [2] = test system: Streptococcus sp. 'group A'; assay: growth inhibition of control SK(-) GAS strain, dose response, counter-screen for streptokinase expression inhibitor project, luminescence, kanamycin, BacTiterGlo, confirmation (AID 1900); assay type: functional, organism-based
# [3] = target: T3, Corticotropin-releasing factor receptor 2/Corticotropin-releasing factor-binding protein (Homo sapiens, UniProt P24387+Q13324); assay: activators of CRF receptor 2 with binding protein – uHTS hits, confirmation (AID 602473); assay type: functional; conditions: read-out: EC50_Mean
# T3 sequence (Q13324 whole entry): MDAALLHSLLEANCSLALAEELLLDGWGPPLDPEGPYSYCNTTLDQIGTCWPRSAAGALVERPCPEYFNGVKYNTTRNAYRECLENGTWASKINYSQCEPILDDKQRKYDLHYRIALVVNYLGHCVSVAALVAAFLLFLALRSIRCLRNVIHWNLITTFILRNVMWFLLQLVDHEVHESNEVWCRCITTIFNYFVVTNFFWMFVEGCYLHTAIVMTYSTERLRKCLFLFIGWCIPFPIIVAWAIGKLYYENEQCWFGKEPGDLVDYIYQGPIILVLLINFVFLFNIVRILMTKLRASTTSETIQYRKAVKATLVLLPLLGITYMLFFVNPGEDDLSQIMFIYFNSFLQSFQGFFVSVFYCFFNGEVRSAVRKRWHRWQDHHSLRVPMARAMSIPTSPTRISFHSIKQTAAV
# T3 sequence (P24387 whole entry): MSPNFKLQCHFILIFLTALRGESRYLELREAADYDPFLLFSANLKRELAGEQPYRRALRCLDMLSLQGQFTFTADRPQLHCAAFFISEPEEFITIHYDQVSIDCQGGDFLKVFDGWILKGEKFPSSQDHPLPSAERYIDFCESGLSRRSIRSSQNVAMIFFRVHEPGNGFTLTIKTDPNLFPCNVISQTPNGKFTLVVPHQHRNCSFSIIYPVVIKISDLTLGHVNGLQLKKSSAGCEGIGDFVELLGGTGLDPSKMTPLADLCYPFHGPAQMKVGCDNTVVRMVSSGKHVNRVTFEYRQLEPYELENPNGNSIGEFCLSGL
# [4] = target: T4, Sentrin-specific protease 7 (Homo sapiens, UniProt Q9BQF6); assay type: functional;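 further: Luminescence-based dose-response confirmation of ultra-high-throughput screening hits, measuring inhibition of SENP7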
# T4 sequence (Q9BQF6 whole entry): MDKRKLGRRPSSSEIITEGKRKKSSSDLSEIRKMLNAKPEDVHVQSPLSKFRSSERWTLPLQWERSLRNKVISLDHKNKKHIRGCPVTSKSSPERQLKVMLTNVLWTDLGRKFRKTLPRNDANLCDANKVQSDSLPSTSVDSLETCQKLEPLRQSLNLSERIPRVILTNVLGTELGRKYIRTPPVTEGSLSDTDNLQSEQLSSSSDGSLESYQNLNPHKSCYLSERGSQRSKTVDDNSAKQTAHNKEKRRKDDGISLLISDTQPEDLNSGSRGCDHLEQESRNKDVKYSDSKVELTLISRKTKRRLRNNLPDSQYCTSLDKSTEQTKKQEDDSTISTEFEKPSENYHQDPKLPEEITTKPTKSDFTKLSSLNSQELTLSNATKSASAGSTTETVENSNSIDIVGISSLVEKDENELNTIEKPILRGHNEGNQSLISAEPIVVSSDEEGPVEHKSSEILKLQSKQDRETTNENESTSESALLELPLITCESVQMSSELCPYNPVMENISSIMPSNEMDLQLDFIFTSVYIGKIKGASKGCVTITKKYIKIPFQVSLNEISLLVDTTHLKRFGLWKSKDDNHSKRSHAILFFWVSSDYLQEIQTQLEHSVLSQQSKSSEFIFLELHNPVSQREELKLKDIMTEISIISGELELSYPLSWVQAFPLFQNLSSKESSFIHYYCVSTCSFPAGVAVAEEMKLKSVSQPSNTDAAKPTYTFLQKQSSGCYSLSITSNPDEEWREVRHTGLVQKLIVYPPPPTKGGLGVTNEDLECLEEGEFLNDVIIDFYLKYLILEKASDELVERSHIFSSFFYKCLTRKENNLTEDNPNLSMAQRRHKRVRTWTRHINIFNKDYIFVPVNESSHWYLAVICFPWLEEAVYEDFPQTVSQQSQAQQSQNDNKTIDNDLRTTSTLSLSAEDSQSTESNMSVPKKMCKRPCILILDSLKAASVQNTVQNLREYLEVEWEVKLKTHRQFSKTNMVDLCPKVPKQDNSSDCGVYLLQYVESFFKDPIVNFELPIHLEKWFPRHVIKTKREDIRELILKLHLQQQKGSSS
# Cytochrome P450 2C9 = Cytochrome P450 2C9 (Homo sapiens, UniProt P11712)
# Sequence of Cytochrome P450 2C9 (P11712 whole entry): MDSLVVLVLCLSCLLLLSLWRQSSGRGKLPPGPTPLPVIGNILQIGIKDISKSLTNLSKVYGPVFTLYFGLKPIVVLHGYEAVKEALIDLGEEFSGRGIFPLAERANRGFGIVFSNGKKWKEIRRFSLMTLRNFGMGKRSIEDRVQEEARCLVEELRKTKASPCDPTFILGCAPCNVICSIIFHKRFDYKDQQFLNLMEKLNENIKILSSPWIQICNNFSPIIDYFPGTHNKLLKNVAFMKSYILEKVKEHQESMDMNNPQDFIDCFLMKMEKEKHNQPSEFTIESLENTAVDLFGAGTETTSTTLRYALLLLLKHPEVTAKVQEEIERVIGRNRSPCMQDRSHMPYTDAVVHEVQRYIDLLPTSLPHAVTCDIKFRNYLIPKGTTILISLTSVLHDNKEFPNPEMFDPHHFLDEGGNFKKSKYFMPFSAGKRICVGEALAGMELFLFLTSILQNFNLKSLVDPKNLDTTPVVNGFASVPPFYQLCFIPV
# Cytochrome P450 2D6 = Cytochrome P450 2D6 (Homo sapiens, UniProt P10635);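 further: CYP2D6 member of a cytochrome P450 panel assay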
# Sequence of Cytochrome P450 2D6 (P10635 whole entry): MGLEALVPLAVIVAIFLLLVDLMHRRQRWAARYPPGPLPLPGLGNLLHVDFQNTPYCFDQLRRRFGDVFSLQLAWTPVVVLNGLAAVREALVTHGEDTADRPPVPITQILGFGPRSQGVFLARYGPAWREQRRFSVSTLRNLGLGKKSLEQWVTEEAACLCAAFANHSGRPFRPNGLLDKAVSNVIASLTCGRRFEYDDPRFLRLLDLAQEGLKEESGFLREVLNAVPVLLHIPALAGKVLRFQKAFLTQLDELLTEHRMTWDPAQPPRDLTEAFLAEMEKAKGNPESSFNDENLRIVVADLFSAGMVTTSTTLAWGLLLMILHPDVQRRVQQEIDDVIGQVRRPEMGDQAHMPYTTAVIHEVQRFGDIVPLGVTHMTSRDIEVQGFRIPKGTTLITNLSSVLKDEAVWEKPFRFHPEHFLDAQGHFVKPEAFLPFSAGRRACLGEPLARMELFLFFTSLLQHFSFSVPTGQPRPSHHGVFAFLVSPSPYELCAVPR
# Caspase-3 = target: T5, Caspase-3 (Homo sapiens, UniProt P42574); assay type: functional;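 further: Dose-response selectivity test against caspase-3 for candidate inhibitors of sentrin-specific proteases (SENPs)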
# T5 sequence (P42574 whole entry): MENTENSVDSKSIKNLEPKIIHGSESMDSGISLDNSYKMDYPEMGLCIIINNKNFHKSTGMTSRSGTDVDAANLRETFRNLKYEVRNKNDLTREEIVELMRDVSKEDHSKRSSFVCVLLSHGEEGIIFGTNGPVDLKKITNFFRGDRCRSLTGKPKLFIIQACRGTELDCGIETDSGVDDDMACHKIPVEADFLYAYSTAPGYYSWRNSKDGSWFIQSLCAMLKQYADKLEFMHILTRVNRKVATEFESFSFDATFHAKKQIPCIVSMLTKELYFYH
# [5] = target: T6, Sentrin-specific protease 6 (Homo sapiens, UniProt Q9GZR1); assay type: functional;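 further: Luminescence-based dose-response confirmatory assay of SENP6 inhibition, following up an ultra-high-throughput screen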
# T6 sequence (Q9GZR1 whole entry): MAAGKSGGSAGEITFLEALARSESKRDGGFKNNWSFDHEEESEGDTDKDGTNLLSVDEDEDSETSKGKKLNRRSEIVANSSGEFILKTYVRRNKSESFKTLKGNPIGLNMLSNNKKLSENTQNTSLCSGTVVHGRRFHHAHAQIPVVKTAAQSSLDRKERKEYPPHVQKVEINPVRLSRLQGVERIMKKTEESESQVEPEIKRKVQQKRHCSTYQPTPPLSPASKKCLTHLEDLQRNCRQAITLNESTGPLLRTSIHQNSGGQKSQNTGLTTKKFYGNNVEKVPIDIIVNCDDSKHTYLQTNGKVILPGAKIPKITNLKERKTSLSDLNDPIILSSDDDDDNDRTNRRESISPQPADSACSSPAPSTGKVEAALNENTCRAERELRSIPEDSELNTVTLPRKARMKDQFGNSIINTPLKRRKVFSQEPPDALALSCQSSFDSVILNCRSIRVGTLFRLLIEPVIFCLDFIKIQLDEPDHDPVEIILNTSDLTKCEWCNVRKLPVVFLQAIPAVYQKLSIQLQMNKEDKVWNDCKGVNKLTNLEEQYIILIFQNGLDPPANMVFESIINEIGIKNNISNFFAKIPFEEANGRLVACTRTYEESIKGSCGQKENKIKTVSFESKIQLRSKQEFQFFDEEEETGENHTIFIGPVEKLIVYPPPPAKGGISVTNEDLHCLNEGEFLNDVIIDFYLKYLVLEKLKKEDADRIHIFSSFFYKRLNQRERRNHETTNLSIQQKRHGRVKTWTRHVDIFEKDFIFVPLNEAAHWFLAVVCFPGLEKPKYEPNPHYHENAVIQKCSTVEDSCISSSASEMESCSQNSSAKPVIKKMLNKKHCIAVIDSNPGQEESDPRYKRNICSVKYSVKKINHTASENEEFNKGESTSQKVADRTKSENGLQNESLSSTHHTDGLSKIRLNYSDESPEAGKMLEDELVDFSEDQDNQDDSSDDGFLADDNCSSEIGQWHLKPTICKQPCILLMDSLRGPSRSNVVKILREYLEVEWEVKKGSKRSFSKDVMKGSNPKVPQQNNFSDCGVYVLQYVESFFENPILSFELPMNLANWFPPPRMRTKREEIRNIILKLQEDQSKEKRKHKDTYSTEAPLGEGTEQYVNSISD
# [6] = target: T7, Sentrin-specific protease 8 (Homo sapiens, UniProt Q96LD8); assay type: functional;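 further: luminescence read-out of SENP8 inhibition, dose-response confirmation following an ultra-high-throughput screen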
# T7 sequence (Q96LD8 whole entry): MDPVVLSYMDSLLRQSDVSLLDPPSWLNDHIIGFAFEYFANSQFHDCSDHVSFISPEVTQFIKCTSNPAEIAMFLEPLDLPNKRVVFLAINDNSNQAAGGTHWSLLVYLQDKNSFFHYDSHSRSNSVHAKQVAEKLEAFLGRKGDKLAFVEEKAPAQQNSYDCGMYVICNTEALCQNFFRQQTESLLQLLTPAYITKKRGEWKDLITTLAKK
structure (smiles),measurement,setting,value
Cc1noc(C)c1S(=O)(=O)N1CCC(C(=O)NCCCN2CC(C)CC(C)C2)CC1 (configuration not stated),EC50,[1],0.473 µM (active)
Cc1ccc2nc3c(O)n(CCc4c[nH]cn4)cnc-3c2c1,EC50,[1],1.88 µM (active)
O=C(NC(=S)NNC(=O)c1ccccc1[N+](=O)[O-])c1ccc(Br)cc1,EC50,Streptococcus,11.6 µM (active)
same,EC50,Streptokinase A,> 150 µM (not active)
same,EC50,[1],11.9 µM (active)
same,EC50,[2],4.24 µM (active)
CCn1c(N2CCN(CC(=O)Nc3cccc(C)c3C)CC2)nc2ccccc21,EC50,[1],2.11 µM (active)
CCOc1ncccc1C(=O)NCC(c1ccccc1)N(C)C (configuration not stated),EC50,[1],1.19 µM (active)
CN(C)CCN(C(=O)c1cccc2ccccc12)c1nc2cc3c(cc2s1)OCO3,EC50,[1],5.96 µM (active)
Cn1c2ccccc2c(=O)c2c(=O)n(C3CCCCC3)c(-c3ccco3)nc21,EC50,[1],4.73 µM (active)
same,EC50,[3],8.22 µM (active)
Cc1cc(C)nc(NC(=O)/C=C/c2ccc(Cl)cc2Cl)c1,IC50,[4],3.39 µM (active)
same,AC50,Cytochrome P450 2C9,inconclusive
same,AC50,Cytochrome P450 2D6,20 µM (inconclusive)
same,IC50,Caspase-3,14.1 µM (active)
same,IC50,[5],3.51 µM (active)
same,IC50,[6],3.93 µM (active)
